Laboratory results published in patent publication US9708336B2, “Metallo-beta-lactamase inhibitors” (priority 2014, dated 2017).
Like-named read-outs stand apart in the source and are kept apart here.

Experiments:
[1] = system: Klebsiella pneumoniae expressing VIM-1 (IHMA599644); assay: Antibiotic potentiation activity: synergistic concentration (MITC95) with imipenem, OD600 growth; type: cell-based; details: for Klebsiella pneumoniae expressing VIM-1 (IHMA 599644) MITC95: concentration giving 95% inhibition of bacterial growth
Experimental: (§1) Antibiotic Potentiation Activity: Determination of Synergistic Concentration
(§2) The bacterial strains tested included the clinical strains Escherichia coli expressing NDM-1 (CLB30005, CLB30016), Serratia marcescens expressing IMP-1 (CL5741), and Klebsiella pneumoniae expressing VIM-1 (IHMA599644) Inhibitor activity was measured in the presence and absence of imipenem in a 384-well microplate.
(§3) The clinical strains CLB30016, CL5741 and IHMA599644 were grown on trypticase soy agar containing 5% sheep's blood. The clinical strain CLB30005 was grown on Mueller Hinton broth agar containing 8 ug/ml imipenem. The bacteria on agar plates were incubated at 35° C. with humidity overnight. The following day, individual colonies from each clinical strain were picked and resuspended in 5 ml saline to attain an OD600 of 0.14, 0.11, 0.15 and 0.13, for CLB30005, CLB30016, CL5741 and IHMA599644, respectively. These were further diluted 1:100 into 1.1×CAMHB and used to inoculate the test wells as described below.
(§4) Imipenem in 10 mM 3-(N-morpholino)propanesulfonic acid (MOPS, pH 7) was stored in single use aliquots at −80° C. […] On the day of the assay, 4 μl of antibiotic was added to 45 ul of bacteria followed by 1 μl of test compound and mixed by pipetting and with an orbital shaker. The concentration of antibiotic used in the assay was 4 μg/ml, or optionally 1 μg/ml. Microplates were covered and incubated at 35° C. for 22 hours to 24 hours. At the end of the incubation, absorbance was determined using a spectrophotometer.

[2] = system: Escherichia coli expressing NDM-1 (CLB30016); assay: as above; type: cell-based; details: for Escherichia coli expressing NDM-1 (CLB 30016) MITC95: concentration giving 95% inhibition of bacterial growth
Experimental: as §1, §2, §3, §4

[3] = system: Serratia marcescens expressing IMP-1 (CL5741); assay: as above; type: cell-based; details: for Serratia marcescens expressing IMP-1 (CL5741) MITC95: concentration giving 95% inhibition of bacterial growth
Experimental: as §1, §2, §3, §4

[4] = biological target: VIM-1 (Pseudomonas aeruginosa (strain ATCC 15692 / DSM 22644 / CIP 104116 / JCM 14847 / LMG 12228 / 1C / PRS 101 / PAO1), UniProt A0A0F7KYQ8); assay: Enzyme activity: determination of IC50, fluorescence assay with CCF2-FA substrate (VIM-1); type: biochemical; details: VIM-1 enzyme, CCF2-FA substrate; read-out: VIM-1 IC50
[5] = biological target: NDM-1 (Klebsiella pneumoniae, UniProt C7C422); assay: biochemical; type: biochemical; details: read-out: NDM-1 IC50
[6] = biological target: IMP-1 (Serratia marcescens, UniProt P52699); assay: biochemical; type: biochemical; details: read-out: IMP-1 IC50
[7] = Klebsiella pneumoniae IHMA599644 (VIM-1), 95% growth inhibition
[8] = (CLB30016, NDM-1), 95% growth inhibition
[9] = Serratia marcescens CL5741 (IMP-1), 95% growth inhibition
[10] = NDM-1 enzyme, CCF2-FA substrate
[11] = IMP-1 enzyme, CCF2-FA substrate
[12] = NDM-1 enzyme, CCF2-FA fluorescence assay
[13] = IMP-1 enzyme, CCF2-FA fluorescence assay
[14] = Klebsiella pneumoniae expressing VIM-1 (IHMA599644), 95% growth inhibition
[15] = Escherichia coli expressing NDM-1 (CLB30016), 95% growth inhibition
[16] = Serratia marcescens expressing IMP-1 (CL5741), 95% growth inhibition
[17] = fluorescence assay with CCF2-FA substrate
[18] = IHMA599644 (VIM-1), 95% inhibition of bacterial growth
[19] = CLB30016 (NDM-1), 95% inhibition of bacterial growth
[20] = CL5741 (IMP-1), 95% inhibition of bacterial growth

NDM-1, sequence (C7C422 whole entry, looked up, species assumed): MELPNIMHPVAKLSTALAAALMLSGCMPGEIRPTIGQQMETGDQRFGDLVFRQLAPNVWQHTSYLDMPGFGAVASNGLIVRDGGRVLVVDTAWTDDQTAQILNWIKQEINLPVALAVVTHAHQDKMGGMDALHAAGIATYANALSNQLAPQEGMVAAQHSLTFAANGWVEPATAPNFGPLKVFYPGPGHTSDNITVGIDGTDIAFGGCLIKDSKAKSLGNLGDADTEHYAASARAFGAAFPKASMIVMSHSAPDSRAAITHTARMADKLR
IMP-1, sequence (P52699 whole entry, looked up): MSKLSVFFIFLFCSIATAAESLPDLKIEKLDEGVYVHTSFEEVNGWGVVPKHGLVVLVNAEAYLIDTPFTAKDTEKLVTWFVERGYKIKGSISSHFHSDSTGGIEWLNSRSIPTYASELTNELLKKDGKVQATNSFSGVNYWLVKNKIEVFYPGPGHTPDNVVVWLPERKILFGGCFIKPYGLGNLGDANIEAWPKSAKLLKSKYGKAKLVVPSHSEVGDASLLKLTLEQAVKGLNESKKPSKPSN

For `Cn1ccnc1CN1CCC(c2ccc(-c3cccc(S(N)(=O)=O)c3-c3nnn[nH]3)cc2)CC1` [Example 621, 3-[4-[1-[(1-methylimidazol-2-yl)methyl]-4-piperidyl]phenyl]-2-(1H-tetrazol-5-yl)benzenesulfonamide], the “Klebsiella pneumoniae MITC95” value [1, 7] was >200 µM, the “Escherichia coli MITC95” value [2, 8] was 3.906 µM and the “Serratia marcescens MITC95” value [3, 9] was 1.563 µM. The IC50 [4] was 0.508 µM.
`NS(=O)(=O)c1c(C(F)(F)F)ccc(N2CCN3C(=O)OCC3C2)c1-c1nnn[nH]1` (stereo not shown) [Example 667, 3-(3-oxotetrahydro[1,3]oxazolo[3,4-a]pyrazin-7(1H)-yl)-2-(1H-tetrazol-5-yl)-6-(trifluoromethyl)benzenesulfonamide] was tested, and the IC50 [5, 10] was 0.0197 µM, the IC50 [6, 11] was 0.075 µM and the “Klebsiella pneumoniae MITC95” value [1, 7] was 9.375 µM. The “Escherichia coli MITC95” value [2, 8] was 3.125 µM and the “Serratia marcescens MITC95” value [3, 9] was 2.344 µM.
With `NS(=O)(=O)c1c(C(F)(F)F)ccc(-c2ccc(C3CCNCC3)cc2)c1-c1nn[nH]n1` [Example 269, 4′-(piperidin-4-yl)-2-(2H-tetrazol-5-yl)-4-(trifluoromethyl)-[1,1′-biphenyl]-3-sulfonamide] the IC50 [5, 12] was 0.00121 µM, the IC50 [6, 13] was 0.00143 µM and the “Klebsiella pneumoniae MITC95” value [1, 14] was 1.969 µM. For the same molecule, the “Escherichia coli MITC95” value [2, 15] was 0.7383 µM and the “Serratia marcescens MITC95” value [3, 16] was 0.3125 µM.
For `NC1CCN(C2CCN(c3ccc(C(F)(F)F)c(S(N)(=O)=O)c3-c3nnn[nH]3)CC2)C1` (stereo not shown) [Example 768, 3-[4-(3-aminopyrrolidin-1-yl)piperidin-1-yl]-2-(1H-tetrazol-5-yl)-6-(trifluoromethyl) benzenesulfonamide], the IC50 [5, 17] was 0.0246 µM, the IC50 [6, 17] was 0.0367 µM and the “Klebsiella pneumoniae MITC95” value [1, 18] was 3.125 µM. For the same molecule, the “Escherichia coli MITC95” value [2, 19] was 12.5 µM and the “Serratia marcescens MITC95” value [3, 20] was 6.25 µM.
`NS(=O)(=O)c1c(CC2CCNCC2)ccc(-c2ccc(C3CCNC3)cc2)c1-c1nn[nH]n1` (stereo not shown) [Example 588, 4-(piperidin-4-ylmethyl)-4′-(pyrrolidin-3-yl)-2-(2H-tetrazol-5-yl)-[1,1′-biphenyl]-3-sulfonamide] was tested, and the IC50 [5, 10] was 0.00627 µM, the IC50 [6, 11] was 0.0288 µM and the “Klebsiella pneumoniae MITC95” value [1, 7] was 1.563 µM. The “Escherichia coli MITC95” value [2, 8] was 1.563 µM and the “Serratia marcescens MITC95” value [3, 9] was 3.125 µM.
For `NS(=O)(=O)c1cccc(CCc2cccnc2)c1-c1nnn[nH]1` [Example 143, 3-(2-pyridin-3-ylethyl)-2-(1H-tetrazol-5-yl)benzenesulfonamide], the IC50 [5, 17] was 0.0207 µM, the IC50 [6, 17] was 0.0985 µM and the “Klebsiella pneumoniae expressing VIM-1 (IHMA 599644) MITC95” value [1] was 200 µM. For the same molecule, the “Escherichia coli expressing NDM-1 (CLB 30016) MITC95” value [2] was 0.7813 µM and the “Serratia marcescens expressing IMP-1 (CL5741) MITC95” value [3] was 4.688 µM.
For `CN1CCN(c2cc(-c3cccc(S(N)(=O)=O)c3-c3nnn[nH]3)ccn2)CC1` [Example 116, 3-(2-(4-methylpiperazin-1-yl)pyridin-4-yl)-2-(1H-tetrazol-5-yl)benzenesulfonamide], the IC50 [5, 17] was 0.00543 µM, the IC50 [6, 17] was 0.226 µM and the “Klebsiella pneumoniae expressing VIM-1 (IHMA 599644) MITC95” value [1] was 200 µM. For the same molecule, the “Escherichia coli expressing NDM-1 (CLB 30016) MITC95” value [2] was 1.563 µM and the “Serratia marcescens expressing IMP-1 (CL5741) MITC95” value [3] was 9.375 µM.
With `NS(=O)(=O)c1c(C(F)(F)F)ccc(-c2ccc(C3CN(CC4CCNCC4)C3)cc2)c1-c1nnn[nH]1` [Example 804, 4′-[1-(piperidin-4-ylmethyl)azetidin-3-yl]-2-(1H-tetrazol-5-yl)-4-(trifluoromethyl)biphenyl-3-sulfonamide] the IC50 [5, 17] was 0.00385 µM, the IC50 [6, 17] was 0.00578 µM and the “Klebsiella pneumoniae MITC95” value [1, 18] was 50 µM. The “Escherichia coli MITC95” value [2, 19] was 3.125 µM and the “Serratia marcescens MITC95” value [3, 20] was 6.25 µM.
With `NC1CCCC1N1CCC(c2ccc(-c3ccc(C(F)(F)F)c(S(N)(=O)=O)c3-c3nnn[nH]3)cc2)CC1` (stereo not shown) [Example 791, 4′-[1-(2-aminocyclopentyl)piperidin-4-yl]-2-(1H-tetrazol-5-yl)-4-(trifluoromethyl)biphenyl-3-sulfonamide] the IC50 [5, 17] was 0.00626 µM, the IC50 [6, 17] was 0.0012 µM and the “Klebsiella pneumoniae MITC95” value [1, 18] was 50 µM. For the same molecule, the “Escherichia coli MITC95” value [2, 19] was 0.7813 µM and the “Serratia marcescens MITC95” value [3, 20] was 1.563 µM.
For `CC(C(=O)O)N(C)Cc1ccc(-c2cccc(S(N)(=O)=O)c2-c2nnn[nH]2)cc1` (stereo not shown) [Example 367, N-methyl-N-{[3′-sulfamoyl-2′-(1H-tetrazol-5-yl)biphenyl-4-yl]methyl}alanine], the IC50 [5, 12] was 0.00753 µM, the IC50 [6, 13] was 0.0603 µM and the “Klebsiella pneumoniae MITC95” value [1, 14] was 200 µM. The “Escherichia coli MITC95” value [2, 15] was 3.125 µM and the “Serratia marcescens MITC95” value [3, 16] was 3.125 µM.
With `NS(=O)(=O)c1c(C(F)(F)F)ccc(-c2ccc3nccn3c2)c1-c1nnn[nH]1` [Example 484, 3-(Imidazo[1,2-a]pyridin-6-yl)-2-(1H-tetrazol-5-yl)-6-(trifluoromethyl)benzenesulfonamide] the IC50 [5, 12] was 0.00122 µM, the IC50 [6, 13] was 0.00658 µM and the “Klebsiella pneumoniae MITC95” value [1, 14] was 1.708 µM. For the same molecule, the “Escherichia coli MITC95” value [2, 15] was 0.25 µM and the “Serratia marcescens MITC95” value [3, 16] was 0.3828 µM.
In the case of `NC1CCCC(N2CCC(c3ccc(-c4ccc(C(F)(F)F)c(S(N)(=O)=O)c4-c4nnn[nH]4)cc3)CC2)C1` (stereo not shown) [Example 798, 4′-[1-(3-aminocyclohexyl)piperidin-4-yl]-2-(1H-tetrazol-5-yl)-4-(trifluoromethyl)biphenyl-3-sulfonamide], the IC50 [5, 17] is reported as 0.00605 µM, the IC50 [6, 17] is reported as 0.00235 µM and the “Klebsiella pneumoniae MITC95” value [1, 18] is reported as 25 µM. For the same molecule, the “Escherichia coli MITC95” value [2, 19] was 1.563 µM and the “Serratia marcescens MITC95” value [3, 20] was 3.125 µM.
`CN1C2CCC1CC(NCc1ccc(-c3cccc(S(N)(=O)=O)c3-c3nnn[nH]3)cc1)C2` (stereo not shown) [Example 370, 4′-{[(8-methyl-8-azabicyclo[3.2.1]oct-3-yl)amino]methyl}-2-(1H-tetrazol-5-yl)biphenyl-3-sulfonamide] was tested, and the IC50 [5, 12] was 0.00735 µM, the IC50 [6, 13] was 0.0458 µM and the “Klebsiella pneumoniae MITC95” value [1, 14] was 200 µM. The “Escherichia coli MITC95” value [2, 15] was 1.563 µM and the “Serratia marcescens MITC95” value [3, 16] was 1.563 µM.
In the case of `NS(=O)(=O)c1cccc(C2=CCS(=O)(=O)CC2)c1-c1nnn[nH]1` [Example 141, 3-(1,1-dioxido-3,6-dihydro-2H-thiopyran-4-yl)-2-(1H-tetrazol-5-yl)benzenesulfonamide], the IC50 [5, 17] is reported as 0.0615 µM, the IC50 [6, 17] is reported as 2.33 µM and the “Klebsiella pneumoniae expressing VIM-1 (IHMA 599644) MITC95” value [1] is reported as 200 µM. The “Escherichia coli expressing NDM-1 (CLB 30016) MITC95” value [2] was 0.7813 µM and the “Serratia marcescens expressing IMP-1 (CL5741) MITC95” value [3] was 37.5 µM.
With `NS(=O)(=O)c1cccc(-c2ccc(NC3CCNC3)nc2)c1-c1nnn[nH]1` (stereo not shown) [Example 628, 3-[6-(pyrrolidin-3-ylamino)-3-pyridyl]-2-(1H-tetrazol-5-yl)benzenesulfonamide] the IC50 [5, 10] was 0.045 µM, the IC50 [6, 11] was 0.65 µM and the “Klebsiella pneumoniae MITC95” value [1, 7] was 12.5 µM. The “Escherichia coli MITC95” value [2, 8] was 0.9766 µM and the “Serratia marcescens MITC95” value [3, 9] was 12.5 µM.
For `NS(=O)(=O)c1cccc(-c2nc(-c3ccncc3)cs2)c1-c1nnn[nH]1` [Example 407, 3-[4-(4-pyridyl)thiazol-2-yl]-2-(1H-tetrazol-5-yl)benzenesulfonamide], the IC50 [5, 12] was 0.0258 µM, the IC50 [6, 13] was 0.115 µM and the “Klebsiella pneumoniae MITC95” value [1, 14] was >200 µM. For the same molecule, the “Escherichia coli MITC95” value [2, 15] was 3.125 µM and the “Serratia marcescens MITC95” value [3, 16] was 3.125 µM.
